Source: patent US8785655B2, “Ionic liquid solvents” (Dublin City University, priority 2009, dated 2014)

Columns and labels:
[1] = system: Staphylococcus aureus CCM 4516/08; test: Screen against bacteria, MIC/IC80; assay type: cell-based; conditions: SA
[2] = system: Staphylococcus aureus H 5996/08 Methiciline-resistant; test: Screen against bacteria, MIC/IC80; assay type: cell-based; conditions: MRSA
[3] = system: Staphylococcus epidermidis H 6966/08; test: Screen against bacteria, MIC/IC80; assay type: cell-based; conditions: SE
[4] = system: Enterococcus sp. J 14365/08; test: Screen against bacteria, MIC/IC80; assay type: cell-based; conditions: EF
Escherichia coli CCM4517 = test: Screen against bacteria, MIC/IC80; assay type: cell-based; conditions: EC
[5] = system: Klebsiella pneumoniae D 11750/08; test: Screen against bacteria, MIC/IC80; assay type: cell-based; conditions: KP
[6] = system: Klebsiella pneumoniae J 14368/08 ESBL-positive; test: Screen against bacteria, MIC/IC80; assay type: cell-based; conditions: KP-E
[7] = system: Pseudomonas aeruginosa CCM 1961; test: Screen against bacteria, MIC/IC80; assay type: cell-based; conditions: PA
[8] = system: Candida albicans ATCC 44859; test: In vitro antifungal activity, MIC by microdilution (NCCLS M27-A)
Procedure: (§1) In vitro antifungal activities of the compounds were evaluated on the collection of fungal strains deposited at the Department of Biological and Medical Sciences, Faculty of Pharmacy, Charles University, Czech Republic. All the isolates were maintained on Sabouraud dextrose agar prior to being tested.
(§2) Minimum inhibitory concentrations (MICs) were determined by the microdilution format of the NCCLS M27-A guidelines. […] RPMI 1640 (Sevapharma, Prague) medium supplemented with L-glutamine and buffered with 0.165 M morpholinepropanesulfonic acid to pH 7.0 was used as the test medium. The wells of the microdilution tray contained 100 μl of the RPMI 1640 medium with 2-fold serial dilutions of the compounds (1000 to 0.24 μmol/l for the new compounds) and 100 μl of inoculum suspension. Fungal inoculum in RPMI 1640 was prepared to give a final concentration of 5×103±0.2 cfu·ml-1. The trays were incubated at 35° C. and MICs were read visually for filamentous fungi and photometrically for yeasts as an optical density (OD) at 540 nm after 24 h and 48 h. The MICs were defined as 80% inhibition of the growth of control. MICs were determined twice and in duplicate. The deviations from the usually obtained were no higher than the nearest concentration value up and down the dilution scale.

[9] = system: Candida albicans ATCC 90028; test: as above
Procedure: as §1, §2

[10] = system: Candida parapsilosis ATCC 22019; test: as above; conditions: CP
Candida krusei ATCC 6258 = test: as above
Procedure: as §1, §2

Candida krusei E28 = test: as above
Candida tropicalis 156 = test: as above; conditions: CT
Candida glabrata 20/l = test: as above; conditions: CG
Procedure: as §1, §2

[11] = system: Candida lusitaniae 2446/l; test: as above; conditions: CL
[12] = system: Aspergillus fumigatus 231; test: as above; conditions: AF
Procedure: as §1, §2

Absidia corymbifera 272 = test: as above; conditions: AC
Procedure: as §1, §2

[13] = system: Trichophyton mentagrophytes 445; test: as above; conditions: TM

Measured: MIC/IC80

CCOCCOC(=O)[C@@H](C)OC(=O)C[n+]1ccn(C)c1 [KG161, R-3-methyl-1-[1-(ethoxyethoxycarbonyl)-1-methylmethoxycarbonylmethyl]imidazolium bromide]
>1000 µmol/L: [1]; 24 h | [1]; 48 h | [2]; 24 h | [2]; 48 h | [3]; 24 h | [3]; 48 h | [4]; 24 h | [4]; 48 h | Escherichia coli CCM4517; 24 h | Escherichia coli CCM4517; 48 h | [5]; 24 h | [5]; 48 h | [6]; 24 h | [6]; 48 h | [7]; 24 h | [7]; 48 h | [8]; CA1, 24 h | [8]; CA1, 48 h | [9]; CA2, 24 h | [9]; CA2, 48 h | [10]; 24 h | [10]; 48 h | Candida krusei ATCC 6258; CK1, 24 h | Candida krusei ATCC 6258; CK1, 48 h | Candida krusei E28; CK2, 24 h | Candida krusei E28; CK2, 48 h | Candida tropicalis 156; 24 h | Candida tropicalis 156; 48 h | Candida glabrata 20/l; 24 h | Candida glabrata 20/l; 48 h | [11]; 24 h | [11]; 48 h | [12]; 24 h | [12]; 48 h | Absidia corymbifera 272; 24 h | Absidia corymbifera 272; 48 h | [13]; 72 h | [13]; 120 h

CCCCCCCCOS(=O)(=O)[O-].CCOCCOC(=O)C(C)OC(=O)Cn1cc[n+](C)c1 (stereo not drawn) [KG172, RS-3-methyl-1-[1-(ethoxyethoxycarbonyl)-1-methylmethoxycarbonylmethyl]imidazolium octyl sulphate]
>1000 µmol/L: [1]; 24 h | [1]; 48 h | [2]; 24 h | [2]; 48 h | [3]; 24 h | [3]; 48 h | [4]; 24 h | [4]; 48 h | Escherichia coli CCM4517; 24 h | Escherichia coli CCM4517; 48 h | [5]; 24 h | [5]; 48 h | [6]; 24 h | [6]; 48 h | [7]; 24 h | [7]; 48 h | [8]; CA1, 24 h | [8]; CA1, 48 h | [9]; CA2, 24 h | [9]; CA2, 48 h | [10]; 24 h | [10]; 48 h | Candida krusei ATCC 6258; CK1, 24 h | Candida krusei ATCC 6258; CK1, 48 h | Candida krusei E28; CK2, 24 h | Candida krusei E28; CK2, 48 h | Candida tropicalis 156; 24 h | Candida tropicalis 156; 48 h | Candida glabrata 20/l; 24 h | Candida glabrata 20/l; 48 h | [11]; 24 h | [11]; 48 h | [12]; 24 h | [12]; 48 h | Absidia corymbifera 272; 24 h | Absidia corymbifera 272; 48 h | [13]; 72 h | [13]; 120 h

CCCCCCCCOS(=O)(=O)[O-].CCOCCOC(=O)[C@@H](OC(=O)Cn1cc[n+](C)c1)c1ccccc1 [KG305, S-3-methyl-1-[1-(ethoxyethoxycarbonyl)-1-phenylmethoxycarbonylmethyl]imidazolium octyl sulphate]
>1000 µmol/L: [1]; 24 h | [1]; 48 h | [2]; 24 h | [2]; 48 h | [3]; 24 h | [3]; 48 h | [4]; 24 h | [4]; 48 h | Escherichia coli CCM4517; 24 h | Escherichia coli CCM4517; 48 h | [5]; 24 h | [5]; 48 h | [6]; 24 h | [6]; 48 h | [7]; 24 h | [7]; 48 h | [8]; CA1, 24 h | [8]; CA1, 48 h | [9]; CA2, 24 h | [9]; CA2, 48 h | [10]; 24 h | [10]; 48 h | Candida krusei ATCC 6258; CK1, 24 h | Candida krusei ATCC 6258; CK1, 48 h | Candida krusei E28; CK2, 24 h | Candida krusei E28; CK2, 48 h | Candida tropicalis 156; 24 h | Candida tropicalis 156; 48 h | Candida glabrata 20/l; 24 h | Candida glabrata 20/l; 48 h | [11]; 24 h | [11]; 48 h | [12]; 24 h | [12]; 48 h | Absidia corymbifera 272; 24 h | Absidia corymbifera 272; 48 h | [13]; 72 h | [13]; 120 h
